The record followed here is patent publication US20220096529A1, “2-HYDROXYPROPYL-BETA-CYCLODEXTRIN (HPBETACD) FOR USE IN THE TREATMENT OF BREAST CANCER” (UNIVERSITY OF THE WITWATERSRAND, JOHANNESBURG, priority 2019, published 2022).

In assay [1] the test system is MDA-MB-231 cells. The assay is described as follows: RT2 Profiler PCR Array Human Lipoprotein Signaling & Cholesterol Metabolism. The format is cell-based. From the text: (§1) PCR (polymerase chain reaction) arrays were run to identify gene expression changes in cancer cells after treatment with HPβCD. The differentially expressed genes along with their significance for cancer, some genes were selected for further drug-protein interaction studies.
(§2) Results from RT^2 Profiler™ PCR Array Human Lipoprotein Signaling & Cholesterol Metabolism (MCF7 and MDA-MB-231) are shown in FIG. 38.

The subject of assay [2] is MCF7 cells. The description is as above. Conditions: MCF7, majority of genes. The format is cell-based.
Source text: as §1, §2

Assay [3] concerns MDA-MB-231 cells. The assay is described as follows: MTT growth inhibition assay. The format is cell-based, human. The method, then:
(§3) Cells were cultured in appropriate medium supplemented with 10% FCS, penicillin (100 U/ml), and streptomycin (100 μg/ml) (Gibco) at 5% CO2 in a 37° C. incubator.
(§4) Four different cell lines were used MCF7 (ER+). MDA-MB-231 (ER−), MRC-5 (Lung Fibroblasts) and HEK-293 (Embryonic kidney). MRC-5 and/or HEK-293 were used as control cell lines depending on availability.
(§5) In order to determine whether HPβCD has the ability to induce cancer cell death a primary screening using an MTT assay was performed. Three different time points 24 hrs.
On the technique in general: Formazan colour is commonly taken as a measure of viable cells.

Assay [4] relates to MCF7 cells. The assay is described as follows: MTT growth inhibition assay. The format is cell-based, human. The method, then:
as §3, §4, §5

Assay [5] deals with MDA-MB-231 cells. The assay is described as follows: BODIPY lipid droplet staining. The format is cell-based, human. From the text:
Lipid droplets store cholesterol and HPβCD was able to reduce accumulation and storage of cholesterol in cancer cells.

Assay [6] has as its system MDA-MB-231 cells. In words: Mitochondrial outer membrane potential assay (MOMP). The format is cell-based, human. Conditions: MDA-MB-231, 10 mM, 24 hrs. The method, then:
(§6) One of the key hallmarks of apoptosis is the loss of mitochondrial membrane potential. To investigate that aspect we did a MOMP assay which validates our Cell-APOPercentage assay. This assay was tested on three cell lines MCF7, MDA-MB-231 & MRC-5. The top right and bottom hand quadrants of each plot represents healthy (FL2-A) and apoptotic (FL1-A) cells respectively (see FIGS. 13 to 15).
(§7) From the results obtained from MTT (IC50 values) and Cell-APOPercentage assays it was quite evident that ˜10 mM HPβCD caused cellular growth inhibition through apoptosis in cancer cells and had little or no effect in normal cells. Therefore, we selected just 10 mM HPβCD going forward as the only working concentration for HPβCD treatment. 24 hrs time point was selected (HPβCD & 10 mM H2O2) because mitochondrial membrane potential loss is an early cellular event.

A further assay has as its system MRC-5 cells. The description is as above. The format is cell-based, human. As to conditions: MRC-5, 10 mM HPβCD, 24 hrs. The method, then: as §6, §7
The test system of assay [7] is MCF7 cells. Described as above. As to conditions: MCF7, 10 mM, 24 hrs. The format is cell-based, human. The method, then:
as §6, §7

2-hydroxypropyl-β-cyclodextrin [HPβCD]: the ABCA1 gene expression entry with MDA-MB-231 cells [1] (MDA-MB-231, HPβCD treated) is on record as “upregulation”. The “genes involved in cholesterol related pathways” value in the assay with MDA-MB-231 cells [1] (MDA-MB-231, majority of genes) is given as “downregulated”; in the assay on MCF7 cells [2], “downregulated”. In addition, the growth inhibition in the assay with MDA-MB-231 cells [3] (MDA-MB-231, 10 mM HPβCD, all three time points) is given as around 45%; in the assay with MCF7 cells [4] (MCF7, 10 mM HPβCD, all three time points (24, 48, 72 hrs)), around 45%. Also, the IC50 (commonly the concentration at which inhibition is half-maximal) with MDA-MB-231 cells [3] (MDA-MB-231, 24 hrs) stood at 12.3 mM; in the assay on MDA-MB-231 cells [3] (MDA-MB-231, 48 hrs), 11.2 mM; in the assay with MDA-MB-231 cells [3] (MDA-MB-231, 72 hrs) it was 8.56 mM; in the assay with MCF7 cells [4] (MCF7, 24 hrs) it was 11.1 mM; in the assay on MCF7 cells [4] (MCF7, 48 hrs) it was 9.82 mM; in the assay with MCF7 cells [4] (MCF7, 72 hrs) it was 7.45 mM. Also, the “lipid droplets (BODIPY) in treated vs untreated cells” value in the assay on MDA-MB-231 cells [5] is “decrease in lipid droplets”. The “apoptotic cells / cell death (loss of mitochondrial membrane potential)” value in the assay on MDA-MB-231 cells [6] worked out at 78.1%. Also, in the assay with MRC-5 cells, the apoptotic cells worked out at 12.8%. The non-apoptotic/healthy population in the assay with MRC-5 cells turned out to be 98.2%. Besides, the “apoptotic population (loss of mitochondrial membrane potential)” value in the assay on MCF7 cells [7] stood at 92.1%.
